Measured values as given in patent US20230023092A1, “TREATMENT OF DEPRESSION AND OTHER VARIOUS DISORDERS WITH PSILOCYBIN” (COMPASS […], priority 2019, published 2023).

System: healthy subjects
Assay: CANTAB global composite score
Type: in vivo, human
Conditions: 10 mg, Day 7
Description: The following list of outcome measures are non-exhaustive. • a. The short-term change from Baseline (Day −1 [Visit 2]) to Day 7 (Visit 5) in cognitive measures of attention, spatial and working memory and executive function was measured by a composite score of the CANTAB Panel (Spatial Working Memory [SWM], Rapid Visual Information Processing [RVP], Paired Associates Learning [PAL]). • b. The short-term change from Baseline (Day −1 [Visit 2]) to Day 7 (Visit 5) in Social Cognition Panel scales (Pictorial Empathy Test [PET], Reading the Mind in the Eyes Test [RMET], Toronto Empathy Questionnaire [TEQ], Social Value Orientation [SVO], Scale of Social Responsibility [SSR]). • c. The change from Baseline (Day −1 [Visit 2]) to Day 28 (Visit 6) in cognitive measures of attention, spatial and working memory and executive function as measured by a composite score of the CANTAB Panel (SWM, RVP, PAL). • d. […] Dose-related differences between cognitive effects of psilocybin at Baseline (Day −1 [Visit 2]), Day 7 (Visit 5) and Day 28 (Visit 6), as measured by a composite score of the CANTAB Panel (SWM, RVP, PAL). • f. Dose-related differences between psychological effects of psilocybin at Baseline (Day −1 [Visit 2]), Day 7 (Visit 5) and Day 84 (Visit 7), as measured by Social Cognition Panel scales (PET, RMET, TEQ, SVO, SSR). • g. […]

## CN(C)CCc1c[nH]c2cccc(OP(=O)(O)O)c12 [Psilocybin, psilocybin]
  CANTAB global composite score, effect size of difference from placebo: 0.53
P value ~0.04460
  CANTAB global composite score, LS mean difference from placebo: −0.1832
